Consider 16 molecules from ChEMBL document CHEMBL1806452, “New salicylamide and sulfonamide derivatives of quinoxaline 1,4-di-N-oxide with antileishmanial and antimalarial activities” (Bioorg Med Chem Lett, 2011).

A value given as a limit tells only on which side of the number the result lay.

Data set [1] relates to Plasmodium falciparum. Put plainly: Antiplasmodial activity against chloroquine-resistant Plasmodium falciparum FCR-3 infected in human erythrocytes assessed as inhibition of [3H]hypoxanthine uptake after 48 hrs. The data set is classed as functional, organism-based.
Data set [2] has as its system Plasmodium falciparum. Put plainly: Ratio of chloroquine IC50 to compound IC50 for chloroquine-resistant Plasmodium falciparum FCR-3 infected in human erythrocytes. The data set is classed as functional.
Data set [3] deals with Leishmania amazonensis. Kind of data set: Leishmanicidal activity against axenic amastigotes of Leishmania amazonensis by MTT assay. Type of data set: functional, organism-based. (Tetrazolium dyes change colour on reduction, which living cells bring about.)
Data set [4] relates to Leishmania amazonensis. Kind of data set: Ratio of amphotericin B IC50 to compound IC50 for axenic amastigotes of Leishmania amazonensis. The data set is classed as functional.
Data set [5] can be described thus: Cytotoxicity against mouse peritoneal macrophages after 48 hrs by trypan blue exclusion method. The data set is classed as cell-based, Peritoneal macrophage cell.
Data set [6] in a line: Selectivity index, ratio of CC50 for mouse peritoneal macrophages to IC50 for axenic amastigotes of Leishmania amazonensis. The data set is classed as functional.

As to `Cc1ccc2c(c1)[n+]([O-])c(C#N)c(NS(=O)(=O)c1ccc3ccccc3c1)[n+]2[O-]`, the IC50 in the data set on Plasmodium falciparum [1] was more than 24.6 µM; in the data set on Leishmania amazonensis [3] it was 16.3 µM. For the same molecule, the results for the “Ratio IC50” value in the data set with Plasmodium falciparum [2] and with Leishmania amazonensis [4] were more than 82 and 81.5, respectively. The CC50 at 48 h in data set [5] is more than 246 µM. In addition, the “Ratio CC50/IC50” value in data set [6] is more than 15.1.
Take `Cc1cc2c(cc1C)[n+]([O-])c(NS(=O)(=O)c1ccc3ccccc3c1)c(C#N)[n+]2[O-]`: the figures for the IC50 with Plasmodium falciparum [1] and in the data set with Leishmania amazonensis [3] were more than 23.8 µM and more than 100 µM, respectively. The “Ratio IC50” value in the data set with Plasmodium falciparum [2] is more than 79; in the data set with Leishmania amazonensis [4], more than 100.
For `N#Cc1c(NS(=O)(=O)c2ccccc2[N+](=O)[O-])[n+]([O-])c2ccc(Cl)cc2[n+]1[O-]`, the IC50 with Plasmodium falciparum [1] worked out at 17.4 µM; with Leishmania amazonensis [3] it was 3.1 µM. The “Ratio IC50” value in the data set with Plasmodium falciparum [2] was determined as 58; in the data set on Leishmania amazonensis [4], 15.5. In data set [5], this molecule yielded a CC50 at 48 h of 6.8 µM. Also, the “Ratio CC50/IC50” value in data set [6] came out at 2.2.
Regarding `N#Cc1c(NS(=O)(=O)c2ccc([N+](=O)[O-])cc2)[n+]([O-])c2ccc(Cl)cc2[n+]1[O-]`, the figures for the IC50 with Plasmodium falciparum [1] and in the data set on Leishmania amazonensis [3] were more than 23.7 µM and 2.1 µM, respectively. Moreover, the “Ratio IC50” value in the data set on Plasmodium falciparum [2] was more than 79; in the data set with Leishmania amazonensis [4] it was 10.5. Besides, the CC50 at 48 h in data set [5] was determined as 7.9 µM. In addition, in data set [6], the “Ratio CC50/IC50” value came to 3.8.
On to `N#Cc1c(NS(=O)(=O)c2ccc([N+](=O)[O-])cc2)[n+]([O-])c2cc(Cl)c(Cl)cc2[n+]1[O-]`, for which the IC50 amounted to 18.7 µM with Plasmodium falciparum [1] and 15.9 µM with Leishmania amazonensis [3]. Further, the “Ratio IC50” value in the data set with Plasmodium falciparum [2] was determined as 62; in the data set with Leishmania amazonensis [4] it was 79.5. In addition, half-maximal cytotoxicity in data set [5] (CC50 at 48 h) was put at 89.1 µM. Besides, the “Ratio CC50/IC50” value in data set [6] is recorded as 5.6.
In the case of `N#Cc1c(NS(=O)(=O)c2ccc([N+](=O)[O-])cc2)[n+]([O-])c2ccccc2[n+]1[O-]`, the IC50 in the data set with Plasmodium falciparum [1] amounted to 20 µM; in the data set on Leishmania amazonensis [3], 86.3 µM. Also, the “Ratio IC50” value in the data set on Plasmodium falciparum [2] is recorded as 67; in the data set with Leishmania amazonensis [4] it was 430.
In the same order, the values of `CC(=O)Oc1ccccc1C(=O)Nc1c(C#N)[n+]([O-])c2ccccc2[n+]1[O-]` are 41.4 µM, 112 µM, 138 and 559.
In the same order, the values of `CC(=O)Oc1ccccc1C(=O)Nc1c(C#N)[n+]([O-])c2cc(Cl)ccc2[n+]1[O-]` are 10.8 µM, 33.6 µM, 36 and 168.
For the molecule `CC(=O)Oc1ccccc1C(=O)Nc1c(C#N)[n+]([O-])c2cc(C)ccc2[n+]1[O-]`, the values for the IC50 in the data set on Plasmodium falciparum [1] and in the data set on Leishmania amazonensis [3] were 52.8 µM and 18.8 µM, respectively. The “Ratio IC50” value with Plasmodium falciparum [2] is recorded as 176; with Leishmania amazonensis [4], 94. This molecule displayed a cytotoxic concentration (CC50) at 48 h in data set [5] of 21.7 µM. Besides, in data set [6], the “Ratio CC50/IC50” value is on record as 1.1.
With `COc1ccc2c(c1)[n+]([O-])c(C#N)c(NC(=O)c1ccccc1OC(C)=O)[n+]2[O-]`, the IC50 in the data set on Plasmodium falciparum [1] was determined as 27 µM; with Leishmania amazonensis [3], 42.4 µM. The “Ratio IC50” value was 90 in the data set with Plasmodium falciparum [2] and 212 in the data set with Leishmania amazonensis [4].
In the case of `CC(=O)Oc1ccccc1C(=O)Nc1c(C#N)[n+]([O-])c2cc(F)c(F)cc2[n+]1[O-]`, the concentration for half-maximal inhibition (IC50) in the data set on Plasmodium falciparum [1] was 36 µM; with Leishmania amazonensis [3] it was 14.8 µM. The “Ratio IC50” value was found to be 120 with Plasmodium falciparum [2] and 74 in the data set with Leishmania amazonensis [4]. The same molecule had a CC50 at 48 h in data set [5] of 10.5 µM. Moreover, the “Ratio CC50/IC50” value in data set [6] was found to be 0.7.
On to `CC(=O)Oc1ccccc1C(=O)Nc1c(C#N)[n+]([O-])c2cc(C)c(C)cc2[n+]1[O-]`, for which the IC50 in the data set with Plasmodium falciparum [1] was determined as 59.4 µM; in the data set on Leishmania amazonensis [3], 17.6 µM. The “Ratio IC50” value in the data set with Plasmodium falciparum [2] was found to be 198; in the data set on Leishmania amazonensis [4] it was 88. This molecule returned a CC50 at 48 h in data set [5] of 12.5 µM. For the same molecule, in data set [6], the “Ratio CC50/IC50” value worked out at 0.7.
Consider `CC(=O)Oc1ccccc1C(=O)Nc1c(C#N)[n+]([O-])c2cc(F)ccc2[n+]1[O-]`, for which the IC50 in the data set with Plasmodium falciparum [1] came to 7.4 µM; with Leishmania amazonensis [3], 7.3 µM. Also, the “Ratio IC50” value in the data set on Plasmodium falciparum [2] is 25; in the data set on Leishmania amazonensis [4] it was 36.5. In data set [5], this molecule returned a CC50 at 48 h of 13.6 µM. Moreover, the “Ratio CC50/IC50” value in data set [6] was 1.8.
With `N#Cc1c(NS(=O)(=O)c2ccc3ccccc3c2)[n+]([O-])c2ccc(Cl)cc2[n+]1[O-]`, the IC50 in the data set on Plasmodium falciparum [1] was more than 23.4 µM; with Leishmania amazonensis [3] it was 20 µM. For the same molecule, the “Ratio IC50” value was more than 78 in the data set with Plasmodium falciparum [2] and 100 in the data set with Leishmania amazonensis [4]. This molecule also yielded a CC50 at 48 h in data set [5] of 88.6 µM. Further, the “Ratio CC50/IC50” value in data set [6] came out at 4.4.
`C[C@@H]1[C@H](O)[C@@H](C)/C=C/C=C/C=C/C=C/C=C/C=C/C=C/[C@H](O[C@@H]2O[C@H](C)[C@@H](O)[C@H](N)[C@@H]2O)C[C@@H]2O[C@](O)(C[C@@H](O)C[C@@H](O)[C@H](O)CC[C@@H](O)C[C@@H](O)CC(=O)O[C@H]1C)C[C@H](O)[C@H]2C(=O)O` [AMPHOTERICIN B]: the “Ratio IC50” value with Leishmania amazonensis [4] was found to be 1. In data set [5], the CC50 at 48 h was 4.4 µM.
In turn, `CCN(CC)CCCC(C)Nc1ccnc2cc(Cl)ccc12` (stereo not drawn) [CHLOROQUINE] registered an IC50 in the data set on Leishmania amazonensis [3] of 20 µM. The CC50 at 48 h in data set [5] worked out at 88.6 µM.

In general, IC50 refers to the concentration that inhibits the measured activity by half. Usually CC50 stands for the concentration giving 50% cytotoxicity. The low end stands for harm at low concentration, the high end for better tolerance by the cells.
